{
  "source": "patent US20030180823A1",
  "about": "“Individualization of therapy with antihistamines” (Xanthus Life Sciences, Inc., priority 2001, published 2003)",
  "origin": "cited, not measured here",
  "tested_on": "skin tests",
  "conditions": "very long half-life",
  "data": [
    {"smiles": "COc1ccc(CCN2CCC(Nc3nc4ccccc4n3Cc3ccc(F)cc3)CC2)cc1", "note": "[Astemizole]", "values": [
      {"measurement": "duration of inhibiting skin tests", "result": "up to 6 weeks"}
    ]}
  ]
}
